Assay results taken from patent US12029682B2, “Spray ejector mechanisms and devices providing charge isolation and controllable droplet charge, and low dosage volume ophthalmic administration” (EYENOVIA, INC., priority 2012, dated 2024).
Entries after “also recorded” stand apart in the source; their conditions may differ.

How the values were obtained:
Type in all cases: in vivo, beagle dog
glaucomatous beagles [1] = assay: Ocular irritation observations in glaucomatous beagles
Experimental: Active drug delivery begins on study day eight. For five days, IOP and PD measurements are taken at 0900. Immediately after 0900 measurements (time 0), each animal receives 6 μl of generic latanoprost in its assigned eye with the ejector device, followed by a second dosing 3 minutes later of an additional 6 μl (to avoid overloading the conjunctival sac). The contralateral eye receives a clinical dose (one drop) of the same commercially-available topical drug from FDA approved container (positive control). The ejector device is checked for accuracy before and after every use (Table 1). Standard measurements continue throughout each day (at 0:30, 0:45, 1, 2, 7 hrs). Possible endpoints include, but are not limited to, excessive ocular irritation, ocular damage, or other illness and injury. […]
(§1) On study days 5-9, IOP and PD measurements were taken at approximately 0900 h (time 0). Immediately after these measurements, each animal received 6 μl of 0.03% bimatoprost in its assigned eye via the spray ejector device. The contralateral eye received a clinical dose (one drop) of the same commercially available topical drug from a traditional eyedropper (positive control). The spray ejector device was checked for accuracy before and after every use and required a 10% delivered dose accuracy in pretreatment. Standard measurements continued throughout each day at 0, 1, 2, 4, and 7 hours. Possible endpoints included, but were not limited to, excessive ocular irritation, ocular damage, and other illness or injury. No statistical crossover was utilized for this study.
Ophthalmic examinations (slit lamp with fluorescein and indirect ophthalmoscopy) were performed on the eyes of each animal prior to Study Day 1. Ocular findings were scored according to the McDonald-Shadduck Score System. Ocular findings were recorded using a standardized data collection sheet. Macroscopic observations were recorded in accordance with the Draize Scale for Scoring Ocular Lesions. Animals were assigned treatments based on basic randomization prior to study day one.
Following a 7 day rest period, the eye choice was reversed. Measurements of IOP, heart rate and pupil diameter (PD) were made at 0:15, 0:30, 0:45, 1, 2, 4, 7, and 18 hours in the primary and crossover study. A veterinary ophthalmologist evaluated each test subject before and after the study for evidence of ocular side effects.
Ophthalmic examinations (slit lamp with fluorescein and indirect ophthalmoscopy) were performed on the eyes of each animal prior to study day 1. Ocular findings were scored according to the McDonald-Shadduck score system and macroscopic observations were recorded in accordance with the Draize scale for scoring ocular lesions. Ocular findings were recorded using a standardized data collection sheet.

glaucomatous beagles [2] = assay: Pupil diameter (PD), Jameson Caliper, in glaucomatous beagles
glaucomatous beagles [3] = assay: Intraocular pressure (IOP), TonoVet, in glaucomatous beagles; conditions: including control of morning IOP spike
Experimental: (§2) One glaucomatous beagle dog (female, aged 3 years) from the University of Florida MacKay Colony of Glaucomatous Beagles was chosen for this study. The animal was rested a minimum of one week before starting the study. Prior to the commencement of the study, the animal was assigned one eye to receive 1.5 μl of 0.005% latanoprost and the contralateral eye to remain untreated as a control. The basic measurement protocol was followed at all times and performed by the same operator. PD was measured via Jameson Caliper (mm horizontally). IOP was measured using a TonoVet instrument with clean probe (iCare). IOP and PD were measured at time 0, 1, 2, 4, 7 and 18 hours daily for two days. Immediately after the time 0 measurement, the animal received 1.5 μl of 0.005% latanoprost in its assigned eye with a spray device. The contralateral eye was left untreated. The spray device was checked for accuracy before and after every use, and required a 10% delivered dose accuracy in pretreatment. Standard measurements continued throughout each day at time 1, 2, 4, 7 and 18 hours. Possible endpoints included, but were not limited to, excessive ocular irritation, ocular damage, and other illness or injury. No statistical crossover was utilized for this study.
as §2, with “study.” for “study. The animal was rested a minimum of one week before starting the study.”, “receive 3.0” for “receive 1.5”, “0 measurements,” for “0 measurement,”, “animal was administered 3.0” for “animal received 1.5”, “eye using” for “eye with”, “spray ejector” for “spray”
All animals were rested for a minimum of one week before starting the trials. IOP and pupil diameter (PD) were measured 5 times (at 0, 1, 2, 4, and 7 hours) daily for four days (study days 1-4) to establish initial baseline levels. The basic measurement protocol was followed at all times and performed by the same operator. PD was measured via Jameson Caliper (mm horizontally). IOP was measured with a TonoVet instrument with clean probe (iCare). After three rest days, one eye was randomly assigned to receive 9 μl of 0.005% latanoprost delivered via a spray ejector device, and the contralateral eye was administered traditional latanoprost from a traditional eyedropper container (26-30 μl).
as §1, with “time 0” for “these”, “a once-daily dose of 9” for “6”, “generic 0.005% latanoprost” for “0.03% bimatoprost”, “study. […]” for “study.”

glaucomatous beagles [4] = assay: as above
[5] = 0.0005%, 0.002%, positively charged, 3 mcl
[6] = 9 μl of 0.004% via spray ejector device, study day 1

`CC(C)OC(=O)CCC/C=C\C[C@@H]1[C@@H](/C=C/[C@@H](O)COc2cccc(C(F)(F)F)c2)[C@H](O)C[C@@H]1O` [travoprost] was tested, and the “excessive eye irritation or other eye issues” value (glaucomatous beagles [1]; 9 μl of 0.004%, spray ejector device and micropipette) was “no reports of excessive eye irritation or other eye issues”, the “irritation vs eyedropper-treated eyes” value (glaucomatous beagles [1]; 18 μl of 0.004% via spray ejector device) was “less than that observed in the eyedropper-treated eyes” and the “decrease of pupillary diameter compared to uncharged droplets” value (glaucomatous beagles [2]; [5]) was “less decrease of pupillary diameter”. The maximum miosis (glaucomatous beagles [2]; 9 μl of 0.004% via spray ejector device, at time 12 hours) was 1.17 mm, the “time of significant PD changes” value (glaucomatous beagles [2]; [6]) was 12 h and the “lowering of IOP over a 24 hour period compared with other prostaglandin agonists studied” value (glaucomatous beagles [3]) was “most effective of the prostaglandin agonists studied”. For the same compound, the “IOP lowering compared to uncharged droplets” value (glaucomatous beagles [4]; [5]) was “greater IOP lowering”, the “IOP values vs baseline” value (glaucomatous beagles [4]; 0.004%, both treatments (18 μl spray ejector device, eyedropper)) was “much lower than baseline for a full 24 hours” and the “IOP lowering compared to uncharged droplets” value (glaucomatous beagles [4]; 0.004%, positively and negatively charged) was “greater IOP lowering”. For the same compound, the IOP lowering (glaucomatous beagles [4]; 3 microliters, 0.002% and 0.0005%, spray ejector device with controllable droplet charge) was “greater IOP lowering”, the “spray ejector device vs micropipette treatment” value (glaucomatous beagles [4]; 9 μl of 0.004% each, throughout the study (p=0.7546)) was “no statistically significant differences” and the “highest average daily peak IOP” value (glaucomatous beagles [4]; 9 μl of 0.004% via spray ejector device, after 5 days of treatment) was 18.83 mmHg. The “time of significant changes in IOP from baseline” value (glaucomatous beagles [4]; [6]) was 12 h, the “post-treatment IOP” value (glaucomatous beagles [4]; 18 μl morning or evening dose via spray ejector device / traditional therapy) was “below 20 mmHg” and the “effectiveness at lowering/controlling IOP vs traditional therapy” value (glaucomatous beagles [4]; 18 μl of 0.004% once daily, morning or evening, via spray ejector device vs one drop (average 26 μl)) was “as effective at lowering IOP and constricting the pupil as the traditional therapy; also recorded: as effective at controlling IOP as traditional therapy”. For the same compound, the “difference in duration of IOP lowering, spray ejector device vs eyedropper” value (glaucomatous beagles [4]; 18 μl of 0.004% vs one drop) was “not significant” and the “duration of IOP lowering” value (glaucomatous beagles [4]; controllable droplet charge spray administration, 1xqd@hs dosing) was “full 24 hour IOP lowering”.
